Measurements published in paper PMC4051630, “A Comparison of Protein Kinases Inhibitor Screening Methods Using Both Enzymatic Activity and Binding Affinity Determination” (PLoS ONE, 2014).

How the values were obtained:
Experiment in all cases: Differential Scanning Fluorimetry (DSF) Tm shift
Format in all cases: binding
AKT3 Catalytic Domain = biological target: T1, AKT3 Catalytic Domain (Homo sapiens, UniProt Q9Y243); conditions: 2 µM protein, 10 µM inhibitor, average of 3 experiments, each in duplicate
T1 construct: AKT3 (Q9Y243); CD; His-tag; made in house; host or cells: Escherichia coli

CHK2 Catalytic Domain = biological target: T2, CHK2 Catalytic Domain (Homo sapiens, UniProt O96017); conditions: 2 µM protein, 10 µM inhibitor, average of 3 experiments, each in duplicate
T2 construct: For all of them, we expressed and purified the catalytic domain separately; His-tag; made in house; host or cells: Escherichia coli

DMPK Catalytic Domain = biological target: T3, DMPK Catalytic Domain (Homo sapiens, UniProt Q09013); conditions: 2 µM protein, 10 µM inhibitor, average of 3 experiments, each in duplicate
T3 construct: For all of them, we expressed and purified the catalytic domain separately; His-tag; made in house; host or cells: Escherichia coli
T3 sequence (Q09013 71-339 limits assumed): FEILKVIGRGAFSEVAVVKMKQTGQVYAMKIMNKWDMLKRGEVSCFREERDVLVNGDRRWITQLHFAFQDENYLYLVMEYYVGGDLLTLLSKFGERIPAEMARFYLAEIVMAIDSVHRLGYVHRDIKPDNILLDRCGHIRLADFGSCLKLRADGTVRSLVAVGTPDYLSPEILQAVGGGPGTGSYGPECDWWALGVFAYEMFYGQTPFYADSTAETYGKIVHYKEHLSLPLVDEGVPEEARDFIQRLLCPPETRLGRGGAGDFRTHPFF

FAK2 Catalytic Domain = biological target: T4, FAK2 Catalytic Domain (Homo sapiens, UniProt Q14289); conditions: 2 µM protein, 10 µM inhibitor, average of 3 experiments, each in duplicate
T4 construct: For all of them, we expressed and purified the catalytic domain separately; His-tag; made in house; host or cells: Escherichia coli

FES Catalytic Domain+SH2 = biological target: T5, FES Catalytic Domain+SH2 (Homo sapiens, UniProt P07332); conditions: 2 µM protein, 10 µM inhibitor, average of 3 experiments, each in duplicate
T5 construct: for 8, we also made a longer version containing one or more additional domains; His-tag; made in house; host or cells: Escherichia coli

FES Catalytic Domain = biological target: T6, FES Catalytic Domain (Homo sapiens, UniProt P07332); conditions: 2 µM protein, 10 µM inhibitor, average of 3 experiments, each in duplicate
T6 construct: For all of them, we expressed and purified the catalytic domain separately; His-tag; made in house; host or cells: Escherichia coli

[1] = biological target: T7, PAK4 Catalytic Domain+PBD (Homo sapiens, UniProt O96013); conditions: 2 µM protein, 10 µM inhibitor, average of 3 experiments, each in duplicate
T7 construct: for 8, we also made a longer version containing one or more additional domains; His-tag; made in house; host or cells: Escherichia coli

PAK4 Catalytic Domain = biological target: T8, PAK4 Catalytic Domain (Homo sapiens, UniProt O96013); conditions: 2 µM protein, 10 µM inhibitor, average of 3 experiments, each in duplicate
T8 construct: For all of them, we expressed and purified the catalytic domain separately; His-tag; made in house; host or cells: Escherichia coli

PAK7 Catalytic Domain = biological target: T9, PAK7 Catalytic Domain (Homo sapiens, UniProt Q9P286); conditions: 2 µM protein, 10 µM inhibitor, average of 3 experiments, each in duplicate
T9 construct: For all of them, we expressed and purified the catalytic domain separately; His-tag; made in house; host or cells: Escherichia coli

[2] = biological target: SRC Catalytic Domain+SH2+SH3 (Homo sapiens, UniProt P12931); conditions: 2 µM protein, 10 µM inhibitor, average of 3 experiments, each in duplicate
[3] = biological target: T10, STK3 Catalytic domain+SARAH (Homo sapiens, UniProt Q13188); conditions: 2 µM protein, 10 µM inhibitor, average of 3 experiments, each in duplicate
T10 construct: for 8, we also made a longer version containing one or more additional domains; His-tag; made in house; host or cells: Escherichia coli
T10 sequence (Q13188 1-491): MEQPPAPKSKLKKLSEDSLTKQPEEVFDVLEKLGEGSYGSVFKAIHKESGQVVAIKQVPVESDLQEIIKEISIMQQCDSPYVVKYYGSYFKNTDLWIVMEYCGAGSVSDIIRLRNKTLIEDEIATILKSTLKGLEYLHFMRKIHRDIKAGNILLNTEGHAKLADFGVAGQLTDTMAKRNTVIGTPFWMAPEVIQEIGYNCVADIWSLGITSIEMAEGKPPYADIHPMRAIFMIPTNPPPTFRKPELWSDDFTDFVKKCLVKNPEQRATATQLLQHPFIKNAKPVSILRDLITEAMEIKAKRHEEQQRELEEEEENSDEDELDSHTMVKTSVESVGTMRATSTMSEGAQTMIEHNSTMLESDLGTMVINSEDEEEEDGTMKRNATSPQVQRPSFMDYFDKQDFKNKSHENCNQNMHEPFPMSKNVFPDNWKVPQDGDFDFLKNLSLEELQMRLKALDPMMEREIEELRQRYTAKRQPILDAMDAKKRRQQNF

STK3 Catalytic Domain = biological target: T11, STK3 Catalytic Domain (Homo sapiens, UniProt Q13188); conditions: 2 µM protein, 10 µM inhibitor, average of 3 experiments, each in duplicate
T11 construct: For all of them, we expressed and purified the catalytic domain separately; His-tag; made in house; host or cells: Escherichia coli
T11 sequence (Q13188 27-278 limits assumed): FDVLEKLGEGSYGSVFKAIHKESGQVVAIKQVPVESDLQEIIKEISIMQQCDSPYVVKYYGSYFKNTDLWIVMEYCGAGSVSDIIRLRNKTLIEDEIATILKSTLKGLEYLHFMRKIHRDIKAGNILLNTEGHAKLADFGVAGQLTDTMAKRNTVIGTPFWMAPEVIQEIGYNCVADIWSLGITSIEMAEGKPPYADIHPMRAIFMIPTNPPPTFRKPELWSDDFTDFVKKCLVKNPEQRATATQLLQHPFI

SRC Catalytic Domain = SRC Catalytic Domain (Homo sapiens, UniProt P12931); parameters: For all of them, we expressed and purified the catalytic domain separately; His-tag; made in house; host or cells: Escherichia coli; conditions: 2 µM protein, 10 µM inhibitor, average of 3 experiments, each in duplicate
CDK2 + Cyclin A = biological target: T12, CDK2 + Cyclin A (Homo sapiens, UniProt P24941); conditions: CDK2 + Cyclin A; 2 µM protein, 10 µM inhibitor; average of 3 experiments, each in duplicate
T12 construct: CDK2 (P24941); 1–299; His-tag; made in house; host or cells: Escherichia coli

T7 sequence (O96013 whole entry, the tested form may be a part): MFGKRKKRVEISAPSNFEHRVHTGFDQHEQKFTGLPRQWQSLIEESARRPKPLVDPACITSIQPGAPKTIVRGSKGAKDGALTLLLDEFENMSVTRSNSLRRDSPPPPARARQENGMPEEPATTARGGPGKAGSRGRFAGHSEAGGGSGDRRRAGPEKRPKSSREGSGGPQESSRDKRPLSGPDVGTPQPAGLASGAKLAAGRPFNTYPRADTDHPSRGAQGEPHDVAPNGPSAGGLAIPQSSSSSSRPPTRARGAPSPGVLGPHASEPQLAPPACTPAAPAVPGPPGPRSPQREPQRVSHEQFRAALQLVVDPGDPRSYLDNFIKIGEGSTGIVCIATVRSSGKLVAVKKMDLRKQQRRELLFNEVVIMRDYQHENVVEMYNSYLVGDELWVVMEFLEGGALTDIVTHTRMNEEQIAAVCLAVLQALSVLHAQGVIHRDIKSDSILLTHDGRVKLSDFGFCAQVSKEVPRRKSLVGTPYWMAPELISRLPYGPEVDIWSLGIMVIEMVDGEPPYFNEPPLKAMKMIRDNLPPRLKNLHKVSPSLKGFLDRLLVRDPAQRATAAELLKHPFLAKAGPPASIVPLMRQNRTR
T1 sequence (Q9Y243 122-479): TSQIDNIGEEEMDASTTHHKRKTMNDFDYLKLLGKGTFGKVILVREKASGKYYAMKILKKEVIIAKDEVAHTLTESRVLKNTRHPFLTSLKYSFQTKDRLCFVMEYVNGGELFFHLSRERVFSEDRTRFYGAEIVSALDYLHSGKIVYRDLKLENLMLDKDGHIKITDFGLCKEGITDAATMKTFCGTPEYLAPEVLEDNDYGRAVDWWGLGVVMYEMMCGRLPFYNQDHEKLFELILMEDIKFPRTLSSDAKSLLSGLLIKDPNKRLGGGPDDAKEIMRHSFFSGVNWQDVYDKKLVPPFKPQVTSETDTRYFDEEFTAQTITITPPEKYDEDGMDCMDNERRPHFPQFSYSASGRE
T2 sequence (O96017 220-486 limits assumed): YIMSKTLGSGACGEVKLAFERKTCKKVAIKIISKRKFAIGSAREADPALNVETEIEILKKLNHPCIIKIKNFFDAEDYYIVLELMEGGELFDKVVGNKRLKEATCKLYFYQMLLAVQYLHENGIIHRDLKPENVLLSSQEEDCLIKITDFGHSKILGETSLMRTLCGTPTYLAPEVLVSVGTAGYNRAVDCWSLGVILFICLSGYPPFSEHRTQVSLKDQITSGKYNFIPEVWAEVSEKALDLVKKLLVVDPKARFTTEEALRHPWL
T9 sequence (Q9P286 449-700 limits assumed): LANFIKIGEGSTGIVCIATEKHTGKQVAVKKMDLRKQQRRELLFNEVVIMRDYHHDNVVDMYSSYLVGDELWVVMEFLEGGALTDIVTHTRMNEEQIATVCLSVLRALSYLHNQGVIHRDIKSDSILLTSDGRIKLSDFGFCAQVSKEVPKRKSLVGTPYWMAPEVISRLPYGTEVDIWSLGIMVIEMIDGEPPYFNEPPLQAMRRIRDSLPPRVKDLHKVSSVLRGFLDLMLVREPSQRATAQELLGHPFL
T6 sequence (P07332 561-822 limits assumed): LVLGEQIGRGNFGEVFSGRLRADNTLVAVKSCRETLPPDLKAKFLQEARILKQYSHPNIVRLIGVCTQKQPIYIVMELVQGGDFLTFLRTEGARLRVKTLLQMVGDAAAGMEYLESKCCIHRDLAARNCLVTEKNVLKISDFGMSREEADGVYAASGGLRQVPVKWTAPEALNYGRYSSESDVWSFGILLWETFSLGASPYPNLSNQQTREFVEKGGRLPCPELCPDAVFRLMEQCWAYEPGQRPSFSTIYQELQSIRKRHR
Sequence of SRC Catalytic Domain (P12931 270-523 limits assumed): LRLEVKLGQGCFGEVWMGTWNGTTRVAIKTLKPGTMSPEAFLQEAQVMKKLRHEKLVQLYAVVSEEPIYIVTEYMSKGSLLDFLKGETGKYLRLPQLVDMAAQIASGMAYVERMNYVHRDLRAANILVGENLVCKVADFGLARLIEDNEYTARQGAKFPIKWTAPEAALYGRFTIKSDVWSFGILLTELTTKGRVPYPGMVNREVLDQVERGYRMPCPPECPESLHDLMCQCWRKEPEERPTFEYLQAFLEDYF
T5 sequence (P07332 448-822 limits assumed): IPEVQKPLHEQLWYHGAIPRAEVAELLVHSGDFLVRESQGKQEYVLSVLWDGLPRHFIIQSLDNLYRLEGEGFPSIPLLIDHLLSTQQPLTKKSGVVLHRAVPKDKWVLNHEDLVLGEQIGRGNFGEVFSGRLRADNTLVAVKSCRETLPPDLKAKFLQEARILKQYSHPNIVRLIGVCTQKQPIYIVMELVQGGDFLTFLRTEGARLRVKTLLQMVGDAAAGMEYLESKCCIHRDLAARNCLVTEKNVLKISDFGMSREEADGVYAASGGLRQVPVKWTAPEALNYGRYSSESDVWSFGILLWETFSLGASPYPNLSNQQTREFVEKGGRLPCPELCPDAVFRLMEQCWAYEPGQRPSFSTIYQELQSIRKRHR
T4 sequence (Q14289 425-683 limits assumed): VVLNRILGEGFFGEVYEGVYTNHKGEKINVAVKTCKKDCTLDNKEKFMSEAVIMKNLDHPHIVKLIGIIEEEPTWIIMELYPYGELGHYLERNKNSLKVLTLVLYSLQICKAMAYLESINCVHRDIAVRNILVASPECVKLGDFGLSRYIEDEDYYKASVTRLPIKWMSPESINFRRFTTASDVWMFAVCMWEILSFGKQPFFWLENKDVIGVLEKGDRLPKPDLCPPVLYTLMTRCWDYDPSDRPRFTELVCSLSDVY
T8 sequence (O96013 321-572 limits assumed): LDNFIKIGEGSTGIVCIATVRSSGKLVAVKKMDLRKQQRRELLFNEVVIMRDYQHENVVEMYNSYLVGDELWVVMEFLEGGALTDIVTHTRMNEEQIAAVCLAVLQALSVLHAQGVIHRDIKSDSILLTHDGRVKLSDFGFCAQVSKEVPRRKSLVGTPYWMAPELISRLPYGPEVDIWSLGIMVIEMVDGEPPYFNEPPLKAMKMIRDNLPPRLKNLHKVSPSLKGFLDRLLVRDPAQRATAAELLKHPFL
Sequence of SRC Catalytic Domain+SH2+SH3 (P12931 84-523 limits assumed): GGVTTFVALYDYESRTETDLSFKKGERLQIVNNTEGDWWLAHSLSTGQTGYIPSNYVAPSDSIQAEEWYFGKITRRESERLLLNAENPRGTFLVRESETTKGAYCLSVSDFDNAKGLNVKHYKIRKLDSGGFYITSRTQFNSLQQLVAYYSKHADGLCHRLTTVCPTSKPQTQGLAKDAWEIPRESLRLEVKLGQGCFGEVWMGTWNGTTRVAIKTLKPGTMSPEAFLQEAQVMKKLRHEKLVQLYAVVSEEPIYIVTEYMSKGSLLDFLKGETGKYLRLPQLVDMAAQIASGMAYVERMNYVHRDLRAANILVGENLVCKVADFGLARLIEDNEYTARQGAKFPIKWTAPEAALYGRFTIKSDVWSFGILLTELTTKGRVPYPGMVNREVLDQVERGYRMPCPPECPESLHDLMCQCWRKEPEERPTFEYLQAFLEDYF

| Melting temperature (Tm) shift (AKT3 Catalytic Domain) [degrees Celcius] | Melting temperature (Tm) shift (CHK2 Catalytic Domain) [degrees Celcius] | Melting temperature (Tm) shift (DMPK Catalytic Domain) [degrees Celcius] | Melting temperature (Tm) shift (FAK2 Catalytic Domain) [degrees Celcius] | Melting temperature (Tm) shift (FES Catalytic Domain+SH2) [degrees Celcius] | Melting temperature (Tm) shift (FES Catalytic Domain) [degrees Celcius] | Melting temperature (Tm) shift [1] [degrees Celcius] | Melting temperature (Tm) shift (PAK4 Catalytic Domain) [degrees Celcius] | Melting temperature (Tm) shift (PAK7 Catalytic Domain) [degrees Celcius] | Melting temperature (Tm) shift [2] [degrees Celcius] | Melting temperature (Tm) shift [3] [degrees Celcius] | Melting temperature (Tm) shift (STK3 Catalytic Domain) [degrees Celcius] | Melting temperature (Tm) shift (SRC Catalytic Domain) [degrees Celcius] | Melting temperature (Tm) shift (CDK2 + Cyclin A) [degrees Celcius] | Structure (SMILES) |
| --- | --- | --- | --- | --- | --- | --- | --- | --- | --- | --- | --- | --- | --- | --- |
| 1.6 | 6.6 | 4.8 | 0.5 | 0.8 | 1.0 | 1.6 | 1.5 | 0.9 | 0.0 | 2.9 | 1.8 | 0.2 |  | CS(=O)(=O)O.Cn1cc(C2=C(c3cn(CCCSC(=N)N)c4ccccc34)C(=O)NC2=O)c2ccccc21 [Ro-31-8220] |
|  |  |  | 0.1 |  |  | 0.3 | 0.0 | 0.0 | 0.0 | 0.4 | 0.1 | 0.0 |  | CN1C(=O)C(=C2Nc3ccccc3C2=NO)c2ccc(Br)cc21 [GSK-3 Inhibitor IX, Control, MeBIO] |
| 0.1 | 7.0 | 0.1 | 0.3 | 0.2 | 0.1 | 0.1 |  |  | 0.4 | 0.4 | 0.9 | 0.7 | 0.1 | COc1cc2ncnc(Nc3ccc(NC(=O)c4ccccc4)cc3)c2cc1OC [Aurora Kinase Inhibitor II] |

Continued, compound first:

| Structure (SMILES) | Melting temperature (Tm) shift (AKT3 Catalytic Domain) [degrees Celcius] | Melting temperature (Tm) shift (CHK2 Catalytic Domain) [degrees Celcius] | Melting temperature (Tm) shift (DMPK Catalytic Domain) [degrees Celcius] | Melting temperature (Tm) shift (FAK2 Catalytic Domain) [degrees Celcius] | Melting temperature (Tm) shift (FES Catalytic Domain+SH2) [degrees Celcius] | Melting temperature (Tm) shift (FES Catalytic Domain) [degrees Celcius] | Melting temperature (Tm) shift [1] [degrees Celcius] | Melting temperature (Tm) shift (PAK4 Catalytic Domain) [degrees Celcius] | Melting temperature (Tm) shift (PAK7 Catalytic Domain) [degrees Celcius] | Melting temperature (Tm) shift [2] [degrees Celcius] | Melting temperature (Tm) shift [3] [degrees Celcius] | Melting temperature (Tm) shift (STK3 Catalytic Domain) [degrees Celcius] | Melting temperature (Tm) shift (SRC Catalytic Domain) [degrees Celcius] | Melting temperature (Tm) shift (CDK2 + Cyclin A) [degrees Celcius] |
| --- | --- | --- | --- | --- | --- | --- | --- | --- | --- | --- | --- | --- | --- | --- |
| Cc1cc(Nc2nc(-c3ccccc3)nc3ccccc23)n[nH]1 [GSK-3 Inhibitor XIII] | 0.2 | 1.9 | 0.5 | 0.8 | 0.2 | 1.0 | 0.8 | 3.0 | 2.0 | 1.6 | 0.9 | 3.7 | 1.3 | 0.3 |
| COc1cc2nccc(Oc3ccc(NC(=S)NC(=O)c4ccccc4C)cc3)c2cc1OC [PDGF RTK Inhibitor] |  | 7.6 |  | 1.0 | 1.5 | 1.6 |  |  |  | 3.9 | 0.0 | 1.7 | 5.9 |  |
| COc1cc2ncnc(Nc3ccc(Cl)cc3Cl)c2cc1OC [Ste11 MAPKKK Activation Inhibitor] |  | 10.6 | 0.4 | 0.4 | 0.1 | 0.1 | 0.1 | 0.0 | 0.0 | 0.7 | 0.6 | 0.3 | 0.5 | 0.1 |
| CCCC(=O)Oc1ccc2[nH]c(C(=O)c3cc4ccccc4[nH]3)cc2c1 |  | 1.4 |  | 0.3 | 0.1 | 0.3 |  | 0.0 | 0.1 | 0.6 | 1.2 | 0.5 | 1.1 |  |
| Cc1nc(N)sc1-c1ccnc(Nc2cccc([N+](=O)[O-])c2)n1 [Cdk2/9 Inhibitor] |  | 1.8 | 0.4 | 0.5 | 0.1 | 0.3 | 2.0 | 0.7 | 0.3 | 0.6 | 0.4 | 0.7 | 0.5 |  |
| CN[C@@H]1C[C@H]2O[C@@](C)([C@@H]1OC)n1c3ccccc3c3c4c(c5c6ccccc6n2c5c31)C(=O)N[C@@H]4O [UCN-01] | 3.2 | 1.7 | 5.9 | 5.9 | 1.3 | 5.2 | 6.8 | 6.2 | 7.4 | 1.2 | 12.7 | 7.6 | 0.4 |  |
